The results in this text go back to patent US11352338B2, “Substituted isoindolinones” (BioTheryX, Inc., priority 2018, dated 2022).

In one test the test system is IL-6. Briefly: IL-6 inhibition, LPS-induced PBMCs or CD14+ monocytes, Meso Scale assay. The format is cell-based. Particulars: LPS 100 ng/mL 18-24 h, read-out: % Inhibition compared to DMSO, IL-6; for inhibition at 1 µM: tested at 1 μM; for inhibition at 10 µM: tested at 10 μM. As for the experimental part: (§1) Either frozen primary blood mononuclear cells (PBMCs) or frozen CD14+ mobilized peripheral blood monocytes were purchased from AllCells (PB003F, Normal Peripheral Blood MNC (Alameda, Calif.)). Cells were quick thawed, washed 1-time with RPMI-1640 (10% FBS/1% Pen-Strep) and plated in 96 well plates at 200,000 cells per well. Cells were pretreated with DMSO only or with the indicated compound for 1 h and then induced with 100 ng/mL lipopolysaccharide (LPS) for 18-24 h. The supernatant was analyzed for IL-1β, IL-6, and TNFα, using Meso Scale assay according to manufacturer's protocol. The negative control wells were treated with DMSO.
(§2) IL-1β, IL-6 and TNFα activities were tested at two different concentrations (1 μM and 10 μM) and the results are shown in Tables 2 and 3 respectively.

Another test has as its system IL-1β. Nature of the test: IL-1β inhibition, LPS-induced PBMCs or CD14+ monocytes, Meso Scale assay. The format is cell-based. As to conditions: LPS 100 ng/mL 18-24 h, read-out: % Inhibition compared to DMSO, IL-1β; for inhibition at 1 µM: tested at 1 μM; for inhibition at 10 µM: tested at 10 μM. As for the experimental part:
as §1, §2

In a further test the target is T1, CK1α (Homo sapiens, UniProt P48729+Q96SW2).
T1 construct: endogenous in cells; host or cells: MV-4-11
Nature of the test: Western blot, degradation of cellular CK1α in MV-4-11 cells. The format is cell-based. Particulars: MV4-11, tested at 1 μM, 6-8 hours, read-out: % Degradation compared to DMSO, CK1α. As for the experimental part:
(§3) MV-4-11 cells were grown in RPMI 1640 media supplemented with 10% fetal bovine serum, streptomycin and penicillin.
(§4) Cells were cultured at approximately 10^6 cells per mL and incubated in DMSO or the indicated compounds for 6-8 hours. Whole cell extracts were prepared using RIPA lysis buffer according to manufacturer's protocol (Pierce). Briefly, 4×10^6 cells were washed once in PBS, the cell pellets were resuspended in RIPA lysis buffer and allowed to incubate for 15 minutes on ice. Cells debris was removed by centrifugation and the cleared whole cell lysates were transferred to new tubes for further analysis.
(§5) For Western blot analysis, whole cell protein extracts were separated on 4-12% SDS-polyacrylamide gels, transferred to nitrocellulose and probed with the indicated primary antibodies. Membranes were subsequently washed and probed with the appropriate IRDye secondary antibodies (LI-COR). The signal was detected using the Odyssey Imaging System (LI-COR).
(§6) The following antibodies were used in these studies: Anti-PDE6D antibody: Santa Cruz Biotechnology, sc-166854 (Dallas, Tex.); Anti-Ikaros: Abcam, ab191394 (Cambridge, Mass.); anti-CK1α antibody: Abcam, ab108296 (Cambridge, Mass.); β-Actin (8H10D10) mouse monoclonal antibody: Cell Signaling Technology, #3700 (Danvers, Mass.); IRDye 680RD Goat anti-rabbit antibody: LI-COR, 926-68071 (Lincoln, Nebr.); and IRDye 800CW Goat anti-mouse antibody: LI-COR, 926-32210 (Lincoln, Nebr.).
(§7) The % degradation values are reported as “A”, “B”, “C”, or “D.” “A” represents a % degradation value of less than 25% (value<25%); “B” represents a % degradation value of equal to or more than 25% and less than 50% (25%≤value<50%); “C” represents a % degradation value of equal to or more than 50% and less than 75% (50%≤value<75%); and “D” represents a % degradation value of equal to or more than 75% (value≥75%). […] was used as control.

For a further test, the target named is T2, Ikaros (Homo sapiens, UniProt Q13422+Q96SW2).
T2 construct: endogenous in cells; host or cells: MV-4-11
Nature of the test: Western blot, degradation of cellular Ikaros in MV-4-11 cells. The format is cell-based. Particulars: MV4-11, tested at 1 μM, 6-8 hours, read-out: % Degradation compared to DMSO, Ikaros. As for the experimental part:
as §3, §4, §5, §6, §7
On the technique in general: A western blot detects proteins with antibodies after separation by electrophoresis.

In a further test the test system is TNFα. Briefly: TNFα inhibition, LPS-induced PBMCs or CD14+ monocytes, Meso Scale assay. The format is cell-based. Particulars: LPS 100 ng/mL 18-24 h, read-out: % Inhibition compared to DMSO, TNFα; for inhibition at 1 µM: tested at 1 μM; for inhibition at 10 µM: tested at 10 μM. As for the experimental part:
as §1, §2

The target in the next test is T3, PDE6D (Homo sapiens, UniProt O43924+Q96SW2).
T3 construct: endogenous in cells; host or cells: MV-4-11
Briefly: Western blot, degradation of cellular PDE6D in MV-4-11 cells. It counts as cell-based. As to conditions: for Dmax at 1 µM: MV4-11, tested at 1 μM, MV-4-11 cells, 6-8 hours, read-out: % Degradation compared to DMSO, PDE6D. On the procedure:
as §3, §4, §5, §6, §7

The test system of another test is IL-2. Briefly: IL-2 inhibition assay, anti-CD3 (OKT3) stimulated PBMCs, Mesoscale IL-2 analysis. It counts as cell-based, human. Particulars: for fold induction at 1 µM / fold induction at 10 µM: Homo sapiens, PBMC, PBMCs on anti-CD3, 24 h, fold difference from DMSO control, read-out: IL-2, % Induction compared to DMSO. As for the experimental part: For the IL-2 analysis, 96 well plates were precoated with 1 μg/mL anti-human CD3 antibody (OKT3, eBioscience Inc., San Diego, Calif.). After washing with PBS, the indicated compound was added (50 μL/well) followed by PBMCs diluted at 3-4 million cells/mL (150 μL/well). Plates were incubated for 24 h and the supernatants collected for Mesoscale IL-2 analysis. IL-2 activity is measured as fold difference from the DMSO control. […]
In Table 4, the fold-change values are reported as “A”, “B”, “C”, or “D”. “A” represents a fold-change value of equal to or less than 0.5 (value≤0.5); “B” represents a fold-change value of more than 0.5 and equal to or less than 1 (0.5<value≤1); “C” represents a fold-change value of more than 1 and less than 1.5 (1<value<1.5); and “D” represents a fold-change value of equal to or more than 1.5 (value≥1.5).

T2 sequence (Q13422 whole entry): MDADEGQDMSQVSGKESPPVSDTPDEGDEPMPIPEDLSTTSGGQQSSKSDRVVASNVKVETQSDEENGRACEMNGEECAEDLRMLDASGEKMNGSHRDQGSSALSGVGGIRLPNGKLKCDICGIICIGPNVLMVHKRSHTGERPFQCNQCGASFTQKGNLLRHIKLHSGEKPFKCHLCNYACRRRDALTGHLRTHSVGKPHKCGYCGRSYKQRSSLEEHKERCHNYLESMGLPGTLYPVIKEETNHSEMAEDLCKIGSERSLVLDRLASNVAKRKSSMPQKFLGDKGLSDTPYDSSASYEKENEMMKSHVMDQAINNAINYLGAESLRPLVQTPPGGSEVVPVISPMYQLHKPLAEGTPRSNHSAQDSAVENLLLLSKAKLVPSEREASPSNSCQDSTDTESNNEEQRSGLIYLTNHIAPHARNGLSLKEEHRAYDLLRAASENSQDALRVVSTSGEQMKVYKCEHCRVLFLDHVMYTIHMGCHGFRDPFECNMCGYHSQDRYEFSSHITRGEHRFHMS
T2 sequence (Q96SW2 whole entry): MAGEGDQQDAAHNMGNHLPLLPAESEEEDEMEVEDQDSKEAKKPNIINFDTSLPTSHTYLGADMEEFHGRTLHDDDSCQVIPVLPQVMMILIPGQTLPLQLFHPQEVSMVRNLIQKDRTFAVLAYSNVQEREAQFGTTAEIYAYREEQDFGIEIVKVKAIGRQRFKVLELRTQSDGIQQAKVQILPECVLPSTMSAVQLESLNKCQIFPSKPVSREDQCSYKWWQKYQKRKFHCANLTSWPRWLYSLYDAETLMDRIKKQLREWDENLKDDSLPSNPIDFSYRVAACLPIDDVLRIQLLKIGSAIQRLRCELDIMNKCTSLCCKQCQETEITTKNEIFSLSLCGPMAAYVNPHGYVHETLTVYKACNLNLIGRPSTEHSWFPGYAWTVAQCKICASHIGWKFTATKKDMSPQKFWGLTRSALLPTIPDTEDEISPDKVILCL
T2 sequence (Q16531 whole entry partner): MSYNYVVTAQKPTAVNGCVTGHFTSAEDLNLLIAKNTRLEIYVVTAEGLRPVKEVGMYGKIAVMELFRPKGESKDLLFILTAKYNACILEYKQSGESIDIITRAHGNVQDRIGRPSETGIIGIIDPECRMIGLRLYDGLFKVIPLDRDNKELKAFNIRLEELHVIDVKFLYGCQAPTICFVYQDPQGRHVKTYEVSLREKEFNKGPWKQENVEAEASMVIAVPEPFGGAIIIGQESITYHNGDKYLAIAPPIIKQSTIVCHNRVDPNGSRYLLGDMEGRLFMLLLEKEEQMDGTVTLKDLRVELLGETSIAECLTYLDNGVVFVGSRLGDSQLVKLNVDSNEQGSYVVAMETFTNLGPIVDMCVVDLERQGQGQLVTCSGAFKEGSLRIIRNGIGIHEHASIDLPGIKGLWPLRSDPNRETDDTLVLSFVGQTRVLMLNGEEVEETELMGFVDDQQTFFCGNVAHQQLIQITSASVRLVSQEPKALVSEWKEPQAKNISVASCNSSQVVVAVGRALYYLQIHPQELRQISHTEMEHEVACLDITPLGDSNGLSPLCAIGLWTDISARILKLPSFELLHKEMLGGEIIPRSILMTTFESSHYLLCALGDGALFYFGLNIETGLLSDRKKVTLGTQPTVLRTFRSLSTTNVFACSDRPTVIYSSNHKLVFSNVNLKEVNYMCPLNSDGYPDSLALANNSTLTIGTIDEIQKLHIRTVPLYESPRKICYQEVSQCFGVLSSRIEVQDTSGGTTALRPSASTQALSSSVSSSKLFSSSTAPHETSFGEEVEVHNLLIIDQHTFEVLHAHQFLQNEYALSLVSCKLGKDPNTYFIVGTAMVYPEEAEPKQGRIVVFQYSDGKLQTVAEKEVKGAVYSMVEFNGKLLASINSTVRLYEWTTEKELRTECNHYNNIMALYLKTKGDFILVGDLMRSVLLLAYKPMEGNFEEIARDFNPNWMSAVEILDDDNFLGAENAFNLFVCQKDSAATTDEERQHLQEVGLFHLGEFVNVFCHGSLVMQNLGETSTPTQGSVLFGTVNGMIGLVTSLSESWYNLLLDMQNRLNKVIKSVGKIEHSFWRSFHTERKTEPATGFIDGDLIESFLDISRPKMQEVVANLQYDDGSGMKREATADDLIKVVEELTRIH
T1 sequence (P48729 whole entry): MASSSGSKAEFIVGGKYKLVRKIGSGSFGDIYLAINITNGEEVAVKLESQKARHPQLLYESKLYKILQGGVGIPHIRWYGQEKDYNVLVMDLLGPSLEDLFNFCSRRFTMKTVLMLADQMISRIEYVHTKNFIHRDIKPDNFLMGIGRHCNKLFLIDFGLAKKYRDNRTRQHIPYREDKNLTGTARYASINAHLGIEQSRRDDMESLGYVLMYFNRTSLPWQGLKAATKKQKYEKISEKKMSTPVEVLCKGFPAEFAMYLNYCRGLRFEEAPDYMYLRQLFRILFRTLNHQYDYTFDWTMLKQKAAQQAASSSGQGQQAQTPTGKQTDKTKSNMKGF
T1 sequence (Q96SW2 whole entry): as the sequence (Q96SW2 whole entry) above
T1 sequence (Q16531 whole entry partner): as the sequence (Q16531 whole entry partner) above
T3 sequence (O43924 whole entry): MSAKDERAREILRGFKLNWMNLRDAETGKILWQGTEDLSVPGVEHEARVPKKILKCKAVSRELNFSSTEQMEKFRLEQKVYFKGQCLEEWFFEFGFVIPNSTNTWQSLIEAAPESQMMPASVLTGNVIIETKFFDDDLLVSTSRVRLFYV
T3 sequence (Q96SW2 whole entry): as the sequence (Q96SW2 whole entry) above
T3 sequence (Q16531 whole entry partner): as the sequence (Q16531 whole entry partner) above

On to `CCC(C)c1cc(F)cc2c1CN(C1CCC(=O)NC1=O)C2=O` (stereo not shown) [Compound 33, 3-(4-(sec-butyl)-6-fluoro-1-oxoisoindolin-2-yl)piperidine-2,6-dione], for which the inhibition (usually the change of the read-out against control, counted positive when it falls) at 1 µM in the test with IL-6 is under 10%; with IL-1β, under 10%; in the test on TNFα it was 25 to 50%. In addition, the Dmax at 1 µM at CK1α is at least 75%; at Ikaros, under 25%; at PDE6D, at least 75%. The fold induction at 1 µM in the test with IL-2 is at most 0.5.

Consider `O=C1CCC(N2Cc3c(cc(C(F)(F)F)cc3C3CCCC3)C2=O)C(=O)N1` (stereo not shown) [Compound 29], for which the results for the inhibition at 1 µM with IL-6, in the test with IL-1β and in the test on TNFα were 10 to 25%, under 10% and under 10%, respectively. In addition, the inhibition at 10 µM in the test on IL-6 is under 10%; in the test on IL-1β, under 10%; in the test on TNFα it was 10 to 25%. Further, the Dmax at 1 µM was under 25% at CK1α, 25 to 50% at Ikaros and under 25% on PDE6D. The fold induction at 1 µM in the test on IL-2 lay in the range of 0.5 to 1. Moreover, in the test with IL-2 (10 μM), the fold induction at 10 µM lay within 0.5 to 1.

Consider `O=C1CCC(N2Cc3c(cc(F)c(F)c3C3CCCC3)C2=O)C(=O)N1` (stereo not shown) [Compound 16], for which the inhibition at 1 µM in the test with IL-6, with IL-1β and in the test on TNFα was under 10% each time. Moreover, the inhibition at 10 µM in the test on IL-6 was under 10%; in the test on IL-1β it was under 10%; in the test on TNFα, 10 to 25%. Also, the results for the Dmax at 1 µM on CK1α, at Ikaros and on PDE6D were 50 to 75%, under 25% and at least 75%, respectively. Besides, the fold induction at 1 µM with IL-2 is 0.5 to 1. The fold induction at 10 µM in the test on IL-2 (10 μM) fell in the range of 0.5 to 1.

For the molecule `CC1(C)CC=C(c2cc(F)cc3c2CN(C2CCC(=O)NC2=O)C3=O)CC1` (stereo not shown) [Compound 8], the results for the inhibition at 1 µM in the test with IL-6, in the test with IL-1β and in the test on TNFα were 10 to 25%, under 10% and 10 to 25%, respectively. Also, the inhibition at 10 µM was 10 to 25% in the test on IL-6, under 10% with IL-1β and 25 to 50% with TNFα. Also, the Dmax at 1 µM at CK1α, on Ikaros and at PDE6D was under 25% in each case. For the same molecule, in the test with IL-2, the fold induction at 1 µM lay in the range of 0.5 to 1. Also, the fold induction at 10 µM with IL-2 (10 μM) is 0.5 to 1.

Regarding `O=C1CCC(N2C(=O)c3cc(F)cc(C4CCCC4)c3C2=O)C(=O)N1` (stereo not shown) [Compound 12], the values for the inhibition at 1 µM in the test on IL-6, in the test on IL-1β and in the test with TNFα were under 10%, under 10% and 10 to 25%, respectively. Besides, the values for the inhibition at 10 µM in the test on IL-6, with IL-1β and with TNFα were under 10%, under 10% and 25 to 50%, respectively. Further, the Dmax at 1 µM on CK1α is under 25%; on Ikaros, under 25%; on PDE6D, at least 75%. In addition, in the test with IL-2, the fold induction at 1 µM is 0.5 to 1. In addition, the fold induction at 10 µM in the test with IL-2 (10 μM) fell in the range of 0.5 to 1.

As to `CC1(C)CCC(c2cc(F)cc3c2CN(C2CCC(=O)NC2=O)C3=O)CC1` (stereo not shown) [Compound 7], the values for the inhibition at 1 µM in the test on IL-6, in the test on IL-1β and in the test with TNFα were 10 to 25%, under 10% and under 10%, respectively. Also, the inhibition at 10 µM in the test on IL-6 was under 10%; in the test on IL-1β it was under 10%; with TNFα, 10 to 25%. The Dmax at 1 µM is under 25% at CK1α, under 25% on Ikaros and at least 75% on PDE6D. In the test on IL-2, the fold induction at 1 µM was in the range of 1 to 1.5. Moreover, the fold induction at 10 µM in the test with IL-2 (10 μM) was in the range of 0.5 to 1.

`O=C1CCC(N2Cc3c(cc(F)cc3C3=CCC(F)(F)CC3)C2=O)C(=O)N1` (stereo not shown) [Compound 9]: the inhibition at 1 µM with IL-6 was 10 to 25%; in the test on IL-1β, under 10%; in the test with TNFα, under 10%. Also, the inhibition at 10 µM with IL-6 was 10 to 25%; in the test on IL-1β it was under 10%; in the test with TNFα, 25 to 50%. Besides, the Dmax at 1 µM at CK1α is under 25%; at Ikaros it was under 25%; on PDE6D it was at least 75%. The fold induction at 1 µM in the test with IL-2 lay in the range of 0.5 to 1. Moreover, in the test with IL-2 (10 μM), the fold induction at 10 µM fell in the range of 0.5 to 1.

As to `O=C1CCC(N2Cc3c(ccc(F)c3C3CCCC3)C2=O)C(=O)N1` (stereo not shown) [Compound 24], the inhibition at 1 µM in the test on IL-6 is under 10%; in the test with IL-1β, under 10%; with TNFα, 10 to 25%. For the same molecule, the inhibition at 10 µM in the test with IL-6, in the test with IL-1β and in the test on TNFα was under 10% in each case. In addition, the Dmax at 1 µM on CK1α is under 25%; on Ikaros it was under 25%; at PDE6D it was 25 to 50%. Further, the fold induction at 1 µM in the test on IL-2 is 1 to 1.5. In the test with IL-2 (10 μM), the fold induction at 10 µM lay in the range of 1 to 1.5.

Take `C[C@@H](c1cc(F)cc2c1CN(C1CCC(=O)NC1=O)C2=O)C(F)(F)F` (stereo partly shown) [Compound 22]: the inhibition at 1 µM in the test on IL-6, in the test on IL-1β and in the test on TNFα was under 10% throughout. Besides, the inhibition at 10 µM fell in the range of 10 to 25% with IL-6, 10 to 25% in the test on IL-1β and 25 to 50% in the test on TNFα. Besides, the Dmax at 1 µM at CK1α is at least 75%; at Ikaros it was under 25%; on PDE6D, at least 75%. Further, the “% Degradation of PDE6D” value at PDE6D (1 μM, comparison with comparative compound A) is listed as “D (a % degradation value of equal to or more than 75% (value≥75%))”. For the same molecule, the “effect on IL-2 (in words)” value with IL-2 (10 μM) is “strong inhibition of IL-2 (downregulation)”. For the same molecule, the “IL-2, % Induction compared to DMSO” value with IL-2 (10 μM, comparison with comparative compound B) is listed as “A (a fold-change value of equal to or less than 0.5 (value≤0.5))”. Also, the fold induction at 1 µM in the test with IL-2 is at most 0.5. In the test on IL-2 (10 μM), the fold induction at 10 µM was at most 0.5.

Take `O=C1CCC(N2Cc3c(cc(F)cc3C3CCC(F)(F)CC3)C2=O)C(=O)N1` (stereo not shown) [Compound 11]: the inhibition at 1 µM with IL-6, in the test with IL-1β and in the test with TNFα was under 10% in each case. For the same molecule, the inhibition at 10 µM in the test with IL-6, in the test with IL-1β and with TNFα was under 10% throughout. Further, the Dmax at 1 µM was 25 to 50% on CK1α, at least 75% on Ikaros and at least 75% at PDE6D. Further, in the test on IL-2, the fold induction at 1 µM fell in the range of 0.5 to 1. The fold induction at 10 µM with IL-2 (10 μM) was 0.5 to 1.
